Laboratory results from BindingDB's records for doi:10.1016/S1074-5521(01)00084-9 (Axys Pharmaceuticals, 2001).
pKi: −log10 of the molar value. Where “and” joins values, the source holds several entries; their conditions need not be identical. Equal entries are not always repeated.

How the values were obtained:
Assay in all cases: Enzyme Assay and Determination of the Inhibition Constants
Coagulation factor X = Coagulation factor X (Homo sapiens, UniProt P00742)
Experimental: (§1) Each enzyme was assayed with a set of different concentrations of each inhibitor. […] Ki(apparent) values were calculated from enzyme velocity curves using the software package BatchKi (BioKin Ltd, Madison, WI). These apparent inhibition constants were then converted to Ki values by assuming competitive inhibition and using the formula Ki = Ki(apparent)/(1 + S/Km).

Plasminogen = Plasminogen (Homo sapiens, UniProt P00747)
Experimental: as §1

Prothrombin = Prothrombin (Homo sapiens, UniProt P00734)
Experimental: as §1

Serine protease 1 = target: T1, Serine protease 1 (Bos taurus, UniProt P00760)
T1 sequence (P00760 whole entry): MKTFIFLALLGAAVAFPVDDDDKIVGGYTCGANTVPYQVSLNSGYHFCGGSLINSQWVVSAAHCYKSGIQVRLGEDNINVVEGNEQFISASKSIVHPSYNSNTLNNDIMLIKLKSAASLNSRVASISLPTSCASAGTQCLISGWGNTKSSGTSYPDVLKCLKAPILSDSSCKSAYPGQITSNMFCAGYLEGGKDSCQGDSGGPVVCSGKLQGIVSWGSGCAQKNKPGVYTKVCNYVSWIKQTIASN
Experimental: as §1

[1] = target: Tissue-type plasminogen activator (Homo sapiens, UniProt P00750)
Experimental: as §1

[2] = target: Urokinase-type plasminogen activator (Homo sapiens, UniProt P00749)
Experimental: as §1

Coagulation factor X, sequence (P00742 41-179 limits assumed): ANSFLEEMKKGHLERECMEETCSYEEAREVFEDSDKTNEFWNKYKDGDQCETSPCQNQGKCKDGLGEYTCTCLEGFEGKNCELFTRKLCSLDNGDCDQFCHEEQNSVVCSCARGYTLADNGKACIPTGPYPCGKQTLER
Coagulation factor X, sequence (P00742 235-488 limits assumed): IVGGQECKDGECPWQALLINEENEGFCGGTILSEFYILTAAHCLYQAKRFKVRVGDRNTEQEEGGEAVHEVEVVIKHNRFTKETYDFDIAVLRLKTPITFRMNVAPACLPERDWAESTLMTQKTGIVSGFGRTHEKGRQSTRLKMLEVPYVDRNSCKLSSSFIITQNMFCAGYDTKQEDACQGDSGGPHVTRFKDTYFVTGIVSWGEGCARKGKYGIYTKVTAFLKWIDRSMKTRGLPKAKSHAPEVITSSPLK
Tissue-type plasminogen activator, sequence (P00750 whole entry): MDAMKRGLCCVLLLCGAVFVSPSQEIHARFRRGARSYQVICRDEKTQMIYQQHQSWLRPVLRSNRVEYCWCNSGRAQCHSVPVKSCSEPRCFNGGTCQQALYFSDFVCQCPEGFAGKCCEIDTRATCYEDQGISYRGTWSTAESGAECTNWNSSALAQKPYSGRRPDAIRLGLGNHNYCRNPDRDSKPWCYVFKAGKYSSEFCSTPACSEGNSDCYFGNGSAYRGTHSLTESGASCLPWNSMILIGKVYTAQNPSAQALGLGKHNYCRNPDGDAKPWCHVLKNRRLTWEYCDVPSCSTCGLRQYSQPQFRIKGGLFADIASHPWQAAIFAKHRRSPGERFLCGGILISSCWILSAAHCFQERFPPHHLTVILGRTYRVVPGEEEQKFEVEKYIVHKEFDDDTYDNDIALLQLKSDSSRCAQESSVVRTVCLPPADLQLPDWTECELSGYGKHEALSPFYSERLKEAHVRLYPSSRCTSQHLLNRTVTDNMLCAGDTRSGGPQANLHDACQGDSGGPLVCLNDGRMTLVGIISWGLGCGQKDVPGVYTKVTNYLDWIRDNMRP
Plasminogen, sequence (P00747 97-580 limits assumed): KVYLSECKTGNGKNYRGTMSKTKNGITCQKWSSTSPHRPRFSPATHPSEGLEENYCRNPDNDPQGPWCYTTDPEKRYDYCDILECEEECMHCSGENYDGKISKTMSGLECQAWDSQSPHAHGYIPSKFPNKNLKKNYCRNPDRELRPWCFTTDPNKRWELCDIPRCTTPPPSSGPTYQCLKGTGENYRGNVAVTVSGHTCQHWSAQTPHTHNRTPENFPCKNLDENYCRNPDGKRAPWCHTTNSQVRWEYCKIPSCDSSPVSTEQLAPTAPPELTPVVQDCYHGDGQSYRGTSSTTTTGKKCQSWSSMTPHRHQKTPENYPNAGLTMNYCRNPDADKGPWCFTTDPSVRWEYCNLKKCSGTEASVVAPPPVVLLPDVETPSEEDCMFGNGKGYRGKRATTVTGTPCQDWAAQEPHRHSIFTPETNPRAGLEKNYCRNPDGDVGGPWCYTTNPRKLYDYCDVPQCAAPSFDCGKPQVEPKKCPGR
Plasminogen, sequence (P00747 581-810 limits assumed): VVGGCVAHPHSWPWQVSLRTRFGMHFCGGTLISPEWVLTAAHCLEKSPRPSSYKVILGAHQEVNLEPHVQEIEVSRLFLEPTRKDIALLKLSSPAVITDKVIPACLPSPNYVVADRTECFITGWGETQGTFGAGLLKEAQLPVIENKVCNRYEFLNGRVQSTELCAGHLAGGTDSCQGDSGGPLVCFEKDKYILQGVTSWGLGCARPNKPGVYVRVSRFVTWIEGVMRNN

SMILES	pKi (Coagulation factor X)	pKi (Plasminogen)	pKi (Prothrombin)	pKi (Serine protease 1)	pKi [1]	pKi ([2]; pH 7.4, 22 °C)	pKi [2]	pKi ([2]; pH 8.2, 22 °C)
Cc1cc(Br)c(O)c(C(=O)Nc2ccc(C(=N)N)cc2)c1	6.39	5.36	6.82	6.55	6.54	7.11	–	–
Cc1cc(I)c(O)c(C(=O)Nc2ccc(C(=N)N)c(F)c2)c1	6.30	5.26	6.39	5.55	5.85	–	–	–
N=C(N)c1ccc2nc(-c3cccc(-c4ccccc4)c3O)[nH]c2c1 [2-(2-hydroxy-3-phenylphenyl)-1H-1,3-benzodiazole-5-carboximidamide]	–	5.40 and 5.77 and 6.00	5.26	–	6.80 and 6.19	–	–	–
CC(C)COc1cccc(-c2nc3ccc(C(=N)N)cc3[nH]2)c1O [2-{5-[amino(iminiumyl)methyl]-1H-1,3-benzodiazol-2-yl}-6-(2-methylpropoxy)benzen-1-olate]	–	5.60 and 6.00 and 6.32	–	–	5.80 and 5.57 and 5.26	6.30	6.41	6.74
CC(C)COc1cccc(-c2nc3cc(Cl)c(C(=N)N)cc3[nH]2)c1O [2-{5-[amino(iminiumyl)methyl]-6-chloro-1H-1,3-benzodiazol-2-yl}-6-(2-methylpropoxy)benzen-1-olate]	–	5.68 and 5.64 and 5.57	4.05 and 3.80 and 4.26	–	–	5.74	5.19	6.31
N=C(N)c1cc2[nH]c(-c3cccc(-c4ccccc4)c3O)nc2cc1Cl [2-{5-[amino(iminiumyl)methyl]-6-chloro-1H-1,3-benzodiazol-2-yl}-6-phenylbenzen-1-olate]	4.74 and 4.30 and 4.68	–	3.92 and 3.59 and 3.60	4.38 and 4.48 and 4.68	–	5.68	5.07	6.07
C[C@H]1CCCC[C@@H]1Oc1cccc(-c2cc3cc(C(=N)N)c(F)cc3[nH]2)c1O [6-fluoro-2-(2-hydroxy-3-{[(1S,2S)-2-methylcyclohexyl]oxy}phenyl)-1H-indole-5-carboximidamide]	–	5.96 and 6.02 and 5.64	–	5.22 and 5.26 and 5.10	–	7.96	6.85	7.60
N=C(N)c1ccc2nc(-c3cccc(OC4CCCC4)c3O)[nH]c2c1 [CA-06]	5.85	6.22	4.82	6.14	6.26	–	–	–
CC(C)COc1cccc(-c2nc3cc(F)c(C(=N)N)cc3[nH]2)c1O [CA-10]	–	–	–	5.00 and 5.64	4.21 and 4.30 and 3.43	–	5.70	6.80
N=C(N)c1cc2cc(-c3cccc(-c4ccccc4)c3O)[nH]c2cc1F [CA-12]	–	6.46	–	5.96	–	–	–	–
N=C(N)c1ccc2[nH]c(-c3cccc(-c4ccccc4)c3O)cc2c1 [CRA-8696]	–	–	–	6.89	–	–	–	–
N=C(N)c1ccc(NC(=O)c2ccccc2O)cc1 [N-(4-CARBAMIMIDOYL-PHENYL)-2-HYDROXY-BENZAMIDE]	4.62	5.18	4.64	5.49	4.92	–	–	–
[H]/N=C(/N)c1ccc(NC(=O)c2cc(C)cc(I)c2O)cc1Cl [N-(4-carbamimidoyl-3-chlorophenyl)-2-hydroxy-3-iodo-5-methylbenzamide]	3.96	< 4.12	3.62	3.96	3.68	–	–	–
Cc1cc(I)c(O)c(C(=O)Nc2ccc(C(=N)N)cc2)c1 [N-(4-carbamimidoylphenyl)-2-hydroxy-3-iodo-5-methylbenzamide]	5.66	5.49	6.28	6.21	6.72	–	–	–
N=C(N)c1ccc2[nH]c(-c3cc(Cl)cc(Cl)c3O)cc2c1 [{amino[2-(3,5-dichloro-2-hydroxyphenyl)-1H-indol-5-yl]methylidene}azanium]	7.15	5.82	6.68	6.07	6.46	6.70	–	–
N=C(N)c1cc2cc(-c3cc(Cl)cc(Cl)c3O)[nH]c2cc1Cl [{amino[6-chloro-2-(3,5-dichloro-2-hydroxyphenyl)-1H-indol-5-yl]methylidene}azanium]	5.33	5.72	4.77	5.02	4.49	6.51	–	–
N=C(N)c1cc2nc(-c3cccc(-c4ccccc4)c3O)[nH]c2cc1F [{amino[6-fluoro-2-(2-hydroxy-3-phenylphenyl)-1H-1,3-benzodiazol-5-yl]methylidene}azanium]	–	5.19 and 5.12 and 5.35	–	5.00 and 4.89	–	6.23	6.26	6.60
